The assay relates to cannabis high (psychotropic effects of THC). Kind of assay: real-life, non-clinical trials by volunteers: oral Olivetol softgel taken at peak of cannabis high, self-reported effects. Type of assay: in vivo, human. To be noted: consumed before or after THC; general statement of the inventors. The protocol: A number of real-life, non-clinical trials have been performed by volunteers, to test the effects of the consumption of embodiments of the present invention, the conditions and results of which are described as follows. All tests were performed in “real life,” rather than clinical conditions. Various methods of consumption of cannabis were used, such as consumption of edibles, inhalation of cannabis smoke, or inhalation of vapor, depending upon the volunteer's preference. Some subjects reported their pre-consumption mood, pain level, etc., as well as their level of experience with consumption of cannabis. After sufficient exposure to cannabis, each subject indicated when their euphoria or “high” had reached a high level or a peak. Then, the subject took one or more oral doses of an embodiment of the present invention, containing 30 mg of Olivetol combined with edible oil in a “softgel” pill. A timer was started and the subject then reported when they felt an awareness of a decrease or reduction in their euphoria or other cannabis effects, as well as their subjective feelings, mood, pain level or other observations, until they self-reported that their cannabis effects were concluded. […]

As to `CCCCCc1cc(O)cc(O)c1` [Olivetol, 5-pentylresorcinol], the “effect of Olivetol consumption on psychotropic effects of THC” value is listed as “significantly reduce the psychotropic effects of THC ingestion”.

These data come from US10265277B2, “Composition of Olivetol and method of use to reduce or inhibit the effects of tetrahydrocannabinol in the human body” (Undoo, LLC, priority 2015, dated 2019).
